Results from publication PMC5365251, “Biophysical assay for tethered signaling reactions reveals tether-controlled activity for the phosphatase SHP-1” (Science Advances, 2017).

Test system: phosphorylated ITIM peptide on PEG28
Assay: Calculation of local concentration, dephosphorylation time and rate enhancement from fitted parameters
Parameters: species or system mouse
Protocol: The tethered enzymatic SPR assay also produced an estimate for the reach parameter (L), which was 23 nm. This number corresponds to a phosphorylated substrate experiencing a maximum local SHP-1 concentration of 45 μM when tethered, compared to, for example, a concentration of 1 μM in solution (Fig. 2A) or in the cytoplasm of immune cells (see Discussion).
Activatory and inhibitory immune receptors are both known to cluster in the plasma membrane ([11]–[15]), but the extent and consequences of clustering remain poorly understood. In the absence of clustering, a phosphorylation site on the cytoplasmic tails of these receptors will experience the low ~1-μM concentration of cytoplasmic SHP-1 [based on 280,000 copies of SHP-1 in cytotoxic T cells ([30]) with a radius of 5 μm]. Tethering of SHP-1 to nonclustered immune receptors at distances >50 nm results in even lower concentrations (for example, 0.04 μM when receptors are 50-nm apart), but when clustered within 5 nm, we can now estimate that this phosphorylated site will experience an SHP-1 concentration of 45 μM (Fig. 8A). […] These concentrations are calculated using the formula for σ with L = 23 nm for r = 5 and 50 nm (see Materials and Methods). We note that this is based on a reach of L = 23 nm, which represents SHP-1 bound to an ITIM on PEG28 dephosphorylating another ITIM on PEG28.
The combined effects induced by SHP-1 tethering on allosteric activation (20-fold) and local substrate concentration (45-fold) can be summarized by calculating the dephosphorylation rate ([SHP-1] × kcat* ).
A key component of the models (described below) is the calculation of the local substrate concentration that a tethered enzyme experiences. We assume that the motion of an unbound phosphorylated peptide (state A) and the motion of SHP-1 bound to a phosphorylated peptide (state B) can both be approximated by the worm-like chain model, which is a widely used polymer model. […]

- increase in SHP-1 (local substrate) concentration on tethering to clustered receptors (solution 1 μM versus tethered and clustered 45 μM): 45 fold
Substance: SHP-1: murine SHP-1 tyrosine phosphatase with an N-terminal 6× His tag, expressed in E. coli
- increase in overall dephosphorylation rate when tethered and clustered ([SHP-1] × kcat*, 45 μM × 0.0118 versus 1 μM × 0.000603 μM^-1 s^-1): 900 fold
- reduction of reaction time by tethering (time to 50% dephosphorylation with versus without tethering): 125 fold
